US7575908B1, “Immobilization method for producing active α1-acid glycoprotein” (Board of Regents of the University of Nebraska, priority 2005, dated 2009)
Values belong to the molecule of their own block, whether it stands above or below them.

How the values were obtained:
Type in all cases: binding
α1-acid glycoprotein [1] = experiment: Self-competition zonal elution of R- and S-propranolol on immobilized α1-acid glycoprotein HPLC column; settings: pH 7.4 phosphate buffered saline, immobilized AGP column
Procedure: (§1) The α1-acid glycoprotein and hydrazide-activated supports were downward slurry-packed at 28 MPa (4000 psi) into 50×4.1 mm I.D. stainless steel columns. These columns were enclosed in water jackets for temperature control. All studies, except those examining the temperature dependence of propranolol—α1-acid glycoprotein binding, were performed at 37° C. The mobile phases and packing solutions were prepared using pH 7.4 phosphate buffered saline (PBS, composition: 0.013 M potassium dihydrogen phosphate, 0.053 M disodium hydrogen phosphate and 0.133 M sodium chloride). Prior to use, all mobile phases were filtered through a 0.45 μm cellulose acetate filter and degassed under vacuum for 10 min. Elution of R- and S-propranolol was detected by monitoring the absorbance at 225 nm. Zonal elution studies were performed on the α1-acid glycoprotein column by applying pH 7.4 phosphate buffer solution containing up to 20 μM of the desired competing agent while making 20 μL injections of R-propranolol or S-propranolol onto the column. At each concentration of competing agent, three replicate injections of the desired analyte were made. The propranolol samples were prepared by dissolving 5.0 μM R- or S-propranolol in the appropriate mobile phase. All mobile phases containing propranolol were prepared using the individual enantiomers or propranolol. The flow rate ranged from 0.8 to 1.5 mL/min, with no significant changes in the retention factors being noted under this range of conditions.
(§2) The retention times for propranolol were calculated using a B/A0.5 method. The column void volume was determined by making injections of sodium nitrate onto a column containing only hydrazide-activated silica while monitoring the absorbance at 205 nm. All elution times were corrected for the extra-column volume of the chromatographic system, as determined by making injections of R-propranolol or S-propranolol when no column was present. A correction for the small amount of non-specific binding between propranolol and the hydrazide support was made by measuring the retention factors for this drug on a column equivalent in size to the α1-acid glycoprotein column, but containing only hydrazide-activated silica. This was measured at each propranolol concentration in the mobile phase and accounted for 3-15% of the retention factors noted for propranolol on the α1-acid glycoprotein column. […] The column was stored in pH 7.4 PBS buffer at 4° C. when not in use.
All of the results presented in Table 2 were generated by performing self-competition zonal elution studies at temperatures ranging from 5° C. to 37° C. in pH 7.4 phosphate buffered saline. The numbers in parentheses represent a range of ± one standard deviation.

α1-acid glycoprotein [2] = experiment: Retention of R- and S-propranolol on α1-acid glycoprotein column as a function of pH; settings: for decrease of retention factor: pH decreased from 7.4 to 4.8
Procedure: as §1, §2
The effect of other separation conditions such as pH were also evaluated. For instance, as the pH decreased from 7.4 to 4.8, the retention factor for R-propranolol decreased from 132 to 17.8 (87%), while the retention factor for S-propranolol decreased from 167 to 17.8 (89%).

[3] = Effects of periodate oxidation on activity of immobilized α1-acid glycoprotein (chromatographic studies); settings: 37° C., pH 7.4 PBS
Procedure: FIG. 2A illustrates an exemplary method for preparing oxidized α1-acid glycoprotein. The conditions chosen for this reaction vary according to the final degree of oxidation desired. […] This mixture was allowed to react for 10 to 15 minutes at room temperature in the dark and quenched by adding 0.25 mL ethylene glycol per milliliter of sample. After this new mixture had reacted for 2 minutes, it was put into a dialysis bag at 4° C. for 2 hours against 2 liters pH 7.0, 20 mM acetate buffer containing 0.15 M sodium chloride. This was followed by three additional two-hour dialysis cycles against 2 liter portions of pH 7.0, 0.10 M potassium phosphate buffer.
Oxidized α1-acid glycoprotein was immobilized to hydrazide-activated silica by a procedure illustrated in FIG. 2C. In exemplary studies, a 5 mL portion of pH 7.0, 0.10 M phosphate buffer containing 1.5 mg/mL oxidized α1-acid glycoprotein was mixed with 0.03 grams of hydrazide-activated silica. This mixture was sonicated under aspirator vacuum for 10 minutes to remove any air bubbles from the suspension. It was then placed onto a shaker and allowed to react at 4° C. for up to seven days, with more than two days being optimum. The reaction was stopped by centrifuging the reaction mixture and removing the supernatant. The support was next washed several times with pH 7.0, 0.10 M phosphate buffer, followed by several additional washings with deionized water. Any hydrazide groups remaining on this support were removed by adding a 200-fold excess of glyceraldehyde versus the support's original hydrazide content. This mixture was shaken at 4° C. for 6 hours. The support was then washed several times with pH 7.0, 0.10 M phosphate buffer. The amount of immobilized α1-acid glycoprotein was determined by comparing the final and initial concentrations of α1-acid glycoprotein in the reaction slurry, using absorbance measurements at 280 nm.
as §1
The retention times for propranolol were calculated using a B/A0.5 method. The column void volume was determined by making injections of sodium nitrate onto a column containing only hydrazide-activated silica while monitoring the absorbance at 205 nm. All elution times were corrected for the extra-column volume of the chromatographic system, as determined by making injections of R-propranolol or S-propranolol when no column was present. […]

[4] = AGP oxidized with 10 mM periodate
[5] = AGP oxidized with 20 mM periodate
[6] = AGP oxidized with 50 mM periodate

Molecule: CC(C)NC[C@@H](O)COc1cccc2ccccc12 [R-Propranolol]
- Association equilibrium constant, Ka (α1-acid glycoprotein [1]; 5° C.): 8 (±2) × 10^6 M^−1
- Association equilibrium constant, Ka (α1-acid glycoprotein [1]; 15° C.): 7 (±1) × 10^6 M^−1
- Association equilibrium constant, Ka (α1-acid glycoprotein [1]; 25° C.): 3.9 (±0.2) × 10^6 M^−1
- Association equilibrium constant, Ka (α1-acid glycoprotein [1]; 37° C.): 2.7 (±0.2) × 10^6 M^−1
- retention factor (α1-acid glycoprotein [2]; pH 4.8, AGP column): 17.8
- retention factor (α1-acid glycoprotein [2]; pH 7.4, AGP column): 132
- decrease of retention factor (α1-acid glycoprotein [2]): 87%

Molecule: CC(C)NCC(O)COc1cccc2ccccc12 (centres unmarked) [S-Propranolol]
- Association equilibrium constant, Ka (α1-acid glycoprotein [1]; 5° C.): 11 (±3) × 10^6 M^−1
- Association equilibrium constant, Ka (α1-acid glycoprotein [1]; 15° C.): 9 (±2) × 10^6 M^−1
- Association equilibrium constant, Ka (α1-acid glycoprotein [1]; 25° C.): 5.2 (±1.7) × 10^6 M^−1
- Association equilibrium constant, Ka (α1-acid glycoprotein [1]; 37° C.): 4.2 (±0.3) × 10^6 M^−1
- retention factor (α1-acid glycoprotein [2]; pH 4.8, AGP column): 17.8
- retention factor (α1-acid glycoprotein [2]; pH 7.4, AGP column): 167
- decrease of retention factor (α1-acid glycoprotein [2]): 89%

- Binding capacity [3, 4]: 6.8 (±0.2) mg/g silica
- Binding capacity [3, 5]: 6.3 (±0.3) mg/g silica
- Binding capacity [3, 6]: 6.8 (±0.3) mg/g silica
Molecule: α1-acid glycoprotein [AGP]
- Specific activity [3, 4]: 0.67 (±0.02) mg/mg AGP
- Specific activity [3, 5]: 0.40 (±0.02) mg/mg AGP
- Specific activity [3, 6]: 0.47 (±0.03) mg/mg AGP
